In publication PMC2666074 (Biochemistry, 2008):
Blank lines part the entries; values can stand above or below the molecule they belong to. Ends that are not written are not given here. Peptide text beside a SMILES is read from it.

How the values were obtained:
S100A6 [1] = molecular target: T1, S100A6 (Oryctolagus cuniculus, UniProt P30801); format: binding, rabbit; details: 25 °C, pH 7.0, 10 mM Ca^2+; for heat of binding in ITC: no affinity could be measured
S100A6 [2] = molecular target: T1, S100A6; test: NMR titration / chemical shift perturbation, SIP; format: binding, rabbit; details: 30 °C
SCF-TBL1 E3 ligase = details: SGS domain mutant of SIP; cited from earlier work
S100A6 [3] = details: cited from earlier work

Molecule: SIP(203–219): SIP fragment for second putative helix (GDDDMKRTINKAWVESR; not fully specified)
- heat of binding in ITC (S100A6 [1]): did not produce any observable heat of binding

- heat of binding in ITC (S100A6 [1]): did not produce detectable heat changes
Molecule: SIP L196A: full length SIP construct, substitution of Leu196 for Ala

- exchange regime of the interaction (NMR titration) (S100A6 [2]; 15N-1H HSQC, pH 6.5, 10 mM Ca^2+): intermediate-fast exchange regime
Molecule: CC[C@H](C)[C@H](NC(=O)[C@H](CCCCN)NC(=O)[C@H](CCCCN)NC(=O)[C@H](CC(C)C)NC(=O)[C@@H](NC(=O)[C@H](CC(N)=O)NC(=O)[C@H](CCSC)NC(=O)[C@H](CC(C)C)NC(=O)CNC(=O)[C@H](CCC(=O)O)NC(=O)[C@H](CO)NC(=O)[C@H](CO)NC(=O)CNC(=O)[C@@H]1CCCN1C(=O)CN)C(C)C)C(=O)N[C@@H](Cc1ccc(O)cc1)C(=O)N[C@@H](CCC(=O)O)C(=O)N[C@@H](CC(=O)O)C(=O)NCC(=O)N[C@@H](CC(=O)O)C(=O)N[C@@H](CC(=O)O)C(=O)N[C@@H](CC(=O)O)C(=O)N[C@@H](CCSC)C(=O)N[C@@H](CCCCN)C(=O)N[C@@H](CCCNC(=N)N)C(=O)N[C@H](C(=O)N[C@H](C(=O)N[C@@H](CC(N)=O)C(=O)N[C@@H](CCCCN)C(=O)N[C@@H](C)C(=O)N[C@@H](Cc1c[nH]c2ccccc12)C(=O)N[C@H](C(=O)N[C@@H](CCC(=O)O)C(=O)N[C@@H](CO)C(=O)N[C@@H](CCCNC(=N)N)C(=O)O)C(C)C)[C@@H](C)CC)[C@@H](C)O [SIP(189–219)] (H-GPGSSEGLMNVLKKIYEDGDDDMKRTINKAWVESR-OH)
- binding stoichiometry by NMR (S100A6 [2]; 15N-labeled S100A6 0.1 mM, 50 mM Tris pH 6.5, 10 mM Ca^2+): two SIP molecules are symmetrically bound to the S100A6 dimer

- reduction of S100A6 binding affinity (S100A6 [1]; ITC, SIP fragment vs SIP(189–219)): 4 fold
Molecule: CC[C@H](C)[C@H](NC(=O)[C@H](CCCCN)NC(=O)[C@H](CCCCN)NC(=O)[C@H](CC(C)C)NC(=O)[C@@H](NC(=O)[C@H](CC(N)=O)NC(=O)[C@H](CCSC)NC(=O)[C@H](CC(C)C)NC(=O)CNC(=O)[C@H](CCC(=O)O)NC(=O)[C@H](CO)NC(=O)[C@H](CO)NC(=O)CNC(=O)[C@@H]1CCCN1C(=O)CN)C(C)C)C(=O)N[C@@H](Cc1ccc(O)cc1)C(=O)N[C@@H](CCC(=O)O)C(=O)N[C@@H](CC(=O)O)C(=O)NCC(=O)O [SIP(189–203)] (H-GPGSSEGLMNVLKKIYEDG-OH)

Molecule: E217K: SGS domain mutant of SIP
- function of the E3 ligase, in words (SCF-TBL1 E3 ligase): disrupt the function of the E3 ligase

- S100A6 binding affinity, in words (S100A6 [1]; ITC, compared with full-length SIP / SIP-SGS): very similar S100A6 binding affinities
Molecule: isolated SGS domain fragment: intrinsically disordered SGS (Sgt1 specific) domain (E178-F229) (EKPSYDTEADPSEGLMNVLKKIYEDGDDDMKRTINKAWVESREKQAREDTEF; left off: His-tag, N-terminal, cleaved)
- Ca^2+ dependence of S100A6 binding (S100A6 [3]): strictly Ca^2+ dependent
